Structures are written as SMILES.

For the experiment, the target named is T1, human factor Xa (Homo sapiens, UniProt P00742).
T1 construct: 25 μl human factor Xa (Enzyme Research Laboratories, Inc; South Bend, Ind.); purchased Enzyme Research Laboratories, Inc; South Bend, Ind
T1 sequence (P00742 235-488 limits assumed): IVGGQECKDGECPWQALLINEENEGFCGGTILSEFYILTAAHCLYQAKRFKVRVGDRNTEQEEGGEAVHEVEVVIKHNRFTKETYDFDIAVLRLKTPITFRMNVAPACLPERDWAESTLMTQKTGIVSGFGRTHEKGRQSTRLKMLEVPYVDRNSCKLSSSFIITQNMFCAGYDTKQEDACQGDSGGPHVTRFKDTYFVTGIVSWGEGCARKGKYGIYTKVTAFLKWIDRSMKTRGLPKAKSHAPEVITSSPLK
T1 sequence (P00742 41-179 partner limits assumed): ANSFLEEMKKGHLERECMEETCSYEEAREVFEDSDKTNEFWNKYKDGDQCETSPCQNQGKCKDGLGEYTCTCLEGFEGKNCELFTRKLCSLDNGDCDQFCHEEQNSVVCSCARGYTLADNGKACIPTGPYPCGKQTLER
Briefly: Factor Xa assay (chromogenic, purified enzyme). In kind it is biochemical. As to conditions: inhibition constant for factor Xa; chromogenic substrate S-2765 140 μM, enzyme 0.5 nM, 25° C., pH 7.8; Ki=IC50/{1+(substrate concentration/Km)}; read-out: Ki(FXa). Summed up: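 Human factor Xa (0.5 nM) pre-incubated 10 min with compound in TBS-PEG/DMSO, then S-2765 (140 μM) added; initial hydrolysis rate read at 405 nm, 25°C. IC50 by linear regression of relative rate vs log concentration; Ki = IC50/(1+[S]/Km).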
In the case of `CC(C)N1CCC(NC(=O)c2cc(C(=O)NC(CO)(CO)CO)nn2Cc2cc(-c3ccc(Cl)s3)on2)CC1` [Example 89, 1-[5-(5-Chloro-thiophen-2-yl)-isoxazol-3-ylmethyl]-1H-pyrazole-3,5-dicarboxylic acid 3-[(2-hydroxy-1,1-bis-hydroxymethyl-ethyl)-amide] 5-[(1-isopropyl-piperidin-4-yl)-amide]], the Ki – broadly, the dissociation constant of the complex between target and ligand, obtained from inhibition or displacement – was found to be 192 nM. In the case of `CC(C)OC(=O)CNC(=O)c1cc(C(=O)NC2CCN(C(C)C)CC2)n(Cc2cc(-c3ccc(Cl)s3)on2)n1` [Example 90, {[1-[5-(5-Chloro-thiophen-2-yl)-isoxazol-3-ylmethyl]-5-(1-isopropyl-piperidin-4-ylcarbamoyl)-1H-pyrazole-3-carbonyl]-amino}-acetic acid isopropyl ester], the Ki stood at 240 nM. Turning to `CC(C)OC(=O)CNC(=O)c1cc(C(=O)NC2CCN(C(C)C)CC2)n(CC(=O)Nc2ccc(Cl)cn2)n1` [Example 92, {[1-[(5-Chloro-pyridin-2-ylcarbamoyl)-methyl]-5-(1-isopropyl-piperidin-4-ylcarbamoyl)-1H-pyrazole-3-carbonyl]-amino}-acetic acid isopropyl ester], the Ki is 41 nM. Regarding `CCOC(=O)CNC(=O)c1cc(C(=O)NC2CCN(C(C)C)CC2)n(CC(=O)Nc2ccc(Cl)cn2)n1` [Example 93, {[1-[(5-Chloro-pyridin-2-ylcarbamoyl)-methyl]-5-(1-isopropyl-piperidin-4-ylcarbamoyl)-1H-pyrazole-3-carbonyl]-amino}-acetic acid ethyl ester], the Ki is 36 nM. As for `CC(C)N1CCC(NC(=O)c2cc(C(=O)NCC(=O)O)nn2CC(=O)Nc2ccc(Cl)cn2)CC1` [Example 94, {[1-[(5-Chloro-pyridin-2-ylcarbamoyl)-methyl]-5-(1-isopropyl-piperidin-4-ylcarbamoyl)-1H-pyrazole-3-carbonyl]-amino}-acetic acid], the Ki is 23 nM. For the compound `CC(C)N1CCC(NC(=O)c2cc(C(=O)N3CC(O)C3)nn2CC(=O)Nc2ccc(Cl)cn2)CC1` [Example 95, 2-[(5-Chloro-pyridin-2-ylcarbamoyl)-methyl]-5-(3-hydroxy-azetidine-1-carbonyl)-2H-pyrazole-3-carboxylic acid (1-isopropyl-piperidin-4-yl)-amide], the Ki was found to be 39 nM. For `CC(C)N1CCC(NC(=O)c2cc(C(=O)OCC3CC3)nn2CC(=O)Nc2ccc(Cl)cn2)CC1` [Example 96, 1-[(5-Chloro-pyridin-2-ylcarbamoyl)-methyl]-5-(1-isopropyl-piperidin-4-ylcarbamoyl)-1H-pyrazole-3-carboxylic acid cyclopropylmethyl ester], the Ki amounted to 18 nM.

Regarding `CCOC(=O)C(NC(=O)c1cc(C(=O)NC2CCN(C(C)C)CC2)n(Cc2cc(-c3ccc(Cl)s3)on2)n1)C(C)C` (centres unmarked) [Example 97, 2-{[1-[5-(5-Chloro-thiophen-2-yl)-isoxazol-3-ylmethyl]-5-(1-isopropyl-piperidin-4-ylcarbamoyl)-1H-pyrazole-3-carbonyl]-amino}-3-methyl-butyric acid ethyl ester], the Ki was determined as 228 nM. Next, `CC(C)C(NC(=O)c1cc(C(=O)NC2CCN(C(C)C)CC2)n(Cc2cc(-c3ccc(Cl)s3)on2)n1)C(=O)O` (centres unmarked) [Example 98, 2-{[1-[5-(5-Chloro-thiophen-2-yl)-isoxazol-3-ylmethyl]-5-(1-isopropyl-piperidin-4-ylcarbamoyl)-1H-pyrazole-3-carbonyl]-amino}-3-methyl-butyric acid]: 140 nM; `O=C(Nc1ccc(N2CCOCC2=O)cc1)c1cc(-c2ccco2)n(Cc2cc(-c3ccc(Cl)s3)on2)n1` [Example 99, 1-[5-(5-Chloro-thiophen-2-yl)-isoxazol-3-ylmethyl]-5-furan-2-yl-1H-pyrazole-3-carboxylic acid [4-(3-oxo-morpholin-4-yl)-phenyl]-amide]: 11 nM.

`COCCOCCOc1cc(C(=O)NC2CCN(C(C)C)CC2)n(CC(=O)Nc2ccc(Cl)cn2)n1` [Example 104, 2-[(5-Chloro-pyridin-2-ylcarbamoyl)-methyl]-5-[2-(2-methoxy-ethoxy)-ethoxy]-2H-pyrazole-3-carboxylic acid (1-isopropyl-piperidin-4-yl)-amide]: the Ki was found to be 25 nM. Next, `CC(C)N1CCC(NC(=O)c2cc(OCC(F)(F)F)nn2CC(=O)Nc2ccc(Cl)cn2)CC1` [Example 105, 2-[(5-Chloro-pyridin-2-ylcarbamoyl)-methyl]-5-(2,2,2-trifluoro-ethoxy)-2H-pyrazole-3-carboxylic acid (1-isopropyl-piperidin-4-yl)-amide]: 21 nM; `COCCOC(=O)c1cc(C(=O)NC2CCN(C(C)C)CC2)n(CC(=O)Nc2ccc(Cl)cn2)n1` [Example 106, 1-[(5-Chloro-pyridin-2-ylcarbamoyl)-methyl]-5-(1-isopropyl-piperidin-4-ylcarbamoyl)-1H-pyrazole-3-carboxylic acid 2-methoxy-ethyl ester]: 16 nM; `CC(C)N1CCC(NC(=O)c2cc(C(=O)OCCO)nn2CC(=O)Nc2ccc(Cl)cn2)CC1` [Example 107, 1-[(5-Chloro-pyridin-2-ylcarbamoyl)-methyl]-5-(1-isopropyl-piperidin-4-ylcarbamoyl)-1H-pyrazole-3-carboxylic acid 2-hydroxy-ethyl ester]: 20 nM.

With `CC(C)N1CCC(NC(=O)c2cc(C(=O)N3CCCOCC3)nn2CC(=O)Nc2ccc(Cl)cn2)CC1` [Example 108, 2-[(5-Chloro-pyridin-2-ylcarbamoyl)-methyl]-5-([1,4]oxazepane-4-carbonyl)-2H-pyrazole-3-carboxylic acid (1-isopropyl-piperidin-4-yl)-amide], the Ki is 39 nM.

With `CC(C)N1CCC(NC(=O)c2cc(C(=O)OCCO)nn2Cc2cc(-c3ccc(Cl)s3)on2)CC1` [Example 110, 1-[5-(5-Chloro-thiophen-2-yl)-isoxazol-3-ylmethyl]-5-(1-isopropyl-piperidin-4-ylcarbamoyl)-1H-pyrazole-3-carboxylic acid 2-hydroxy-ethyl ester], the Ki turned out to be 81 nM. Then `CC(C)N1CCC(NC(=O)c2cc(C(=O)OCC(=O)O)nn2Cc2cc(-c3ccc(Cl)s3)on2)CC1` [Example 111, 1-[5-(5-Chloro-thiophen-2-yl)-isoxazol-3-ylmethyl]-5-(1-isopropyl-piperidin-4-ylcarbamoyl)-1H-pyrazole-3-carboxylic acid carboxymethyl ester], with 49 nM.
